The text below walks through data of ChEMBL document CHEMBL2321706, “Structure-activity relationship of benzodiazepine derivatives as LXXLL peptide mimetics that inhibit the interaction of vitamin D receptor with coactivators” (Bioorg Med Chem, 2013).

One may read the IC50 as the concentration that inhibits the measured activity by half. As a reminder, the inhibition is the percentage by which the read-out fell short of the control.

Calls of active or inactive are those of the source. The calls are words filed in the database; no cut-off is given here.

Assay type in all cases: cell-based
In one series the test system is HEK293. Kind of series: Cytotoxicity to human HEK293 cells at 30 uM after 16 to 18 hrs. The note with it: hek293, 30 µM.
The target in a further series is T1, Vitamin D3 receptor (Homo sapiens, UniProt P11473).
T1 sequence (P11473 whole entry): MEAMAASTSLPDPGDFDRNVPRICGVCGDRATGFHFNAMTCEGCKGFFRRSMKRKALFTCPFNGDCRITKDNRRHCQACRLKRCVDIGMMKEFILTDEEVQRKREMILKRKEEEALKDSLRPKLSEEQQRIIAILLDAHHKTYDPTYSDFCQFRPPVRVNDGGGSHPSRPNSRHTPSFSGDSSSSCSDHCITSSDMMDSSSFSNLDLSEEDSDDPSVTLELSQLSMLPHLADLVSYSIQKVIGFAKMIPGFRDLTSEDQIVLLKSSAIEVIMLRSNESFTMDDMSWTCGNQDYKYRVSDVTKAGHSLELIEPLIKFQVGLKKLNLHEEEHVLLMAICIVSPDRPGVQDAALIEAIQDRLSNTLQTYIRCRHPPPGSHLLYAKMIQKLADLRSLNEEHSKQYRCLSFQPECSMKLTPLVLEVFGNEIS
Kind of series: Inhibition of human recombinant GAL4N-fused VDR LBD expressed in HEK293 cells using 1,25(OH)2D3 as substrate assessed as inhibition of cofactor interaction after 16 to 18 hrs by luciferase reporter gene assay.

In series [1] the target is T2, Vitamin D3 receptor (Homo sapiens) (UniProt P11473).
T2 sequence (whole entry): T1 sequence (P11473 whole entry)
The experiment in a line: Inhibition of human recombinant GAL4N-fused VDR LBD expressed in HEK293 cells using 1,25(OH)2D3 as substrate assessed as inhibition of cofactor interaction at 30 uM after 16 to 18 hrs by luciferase reporter gene assay relative to control.

Take `CCC/C=C/c1cc2c(cc1N)N[C@@H](CC(C)C)C(=O)N(CCC(C)C)C2`: the Activity result in the series with HEK293 is listed as “Toxic”.
With `CCOC(=O)c1ccc(-c2cc3c(cc2N)N[C@@H](CC(C)C)C(=O)N(CCC(C)C)C3)c(OCCO)c1`, the IC50 at Vitamin D3 receptor was found to be 20 µM.
`CC(C)CCN1Cc2cc(CCCO)ccc2N[C@@H](CC(C)C)C1=O`: the half-inhibitory concentration (IC50) on Vitamin D3 receptor was over 30 µM. Also, the inhibition in series [1] was found to be 9%.
Regarding `CCCCc1cc2c(cc1N)N[C@@H](CC(C)C)C(=O)N(CCC(C)C)C2`, the IC50 at Vitamin D3 receptor came out at 25 µM.
On to `CC/C=C/c1ccc2c(c1)CN(CCC(C)C)C(=O)[C@H](CC(C)C)N2`, for which, in series [1], the inhibition result was “inactive”.
Take `CC(C)CCN1Cc2cc(-c3ccc(C(=O)O)cc3)c(N)cc2N[C@@H](CC(C)C)C1=O`: the half-maximal inhibitory concentration (IC50) at Vitamin D3 receptor was over 30 µM. The inhibition in series [1] stood at 8%.
As to `CC(C)CCN1Cc2cc(CC(C)C)ccc2N[C@@H](CC(C)C)C1=O`, the 50% inhibitory concentration (IC50) at Vitamin D3 receptor is over 30 µM. In series [1], the inhibition was 45%.
Turning to `CC/C=C/c1cc2c(cc1N)N[C@@H](CC(C)C)C(=O)N(CCC(C)C)C2`, at Vitamin D3 receptor, the half-inhibitory concentration (IC50) was over 30 µM. For the same molecule, the inhibition in series [1] stood at 48%.
Regarding `CC(C)CCN1Cc2cc(I)c(N)cc2N[C@@H](CC(C)C)C1=O`, the 50% inhibitory concentration (IC50) at Vitamin D3 receptor turned out to be 30 µM.
As for `CCOC(=O)c1ccc(-c2cc3c(cc2N)N[C@@H](CC(C)C)C(=O)N(CCC(C)C)C3)cc1`, on Vitamin D3 receptor, the IC50 turned out to be 14 µM.
Consider `CC(C)CCN1Cc2cc(/C=C/CCO)ccc2N[C@@H](CC(C)C)C1=O`, for which the IC50 on Vitamin D3 receptor is over 30 µM. Besides, the inhibition in series [1] is 28%.
For `CC(C)CCN1Cc2cc(CCCCO)ccc2N[C@@H](CC(C)C)C1=O`, the inhibition result in series [1] was “inactive”.
As to `CC(C)CCN1Cc2cc(-c3ccccc3)c(N)cc2N[C@@H](CC(C)C)C1=O`, at Vitamin D3 receptor, the IC50 stood at 24 µM.
Turning to `CC(C)CCN1Cc2ccc(N)cc2N[C@@H](CC(C)C)C1=O`, the concentration for half-maximal inhibition (IC50) on Vitamin D3 receptor was over 30 µM. In series [1], the inhibition was 7%.
Consider `CC(C)CCN1Cc2ccccc2N[C@@H](CC(C)C)C1=O`, for which, at Vitamin D3 receptor, the IC50 was over 30 µM. The inhibition in series [1] turned out to be 29%.
Take `CCCCCc1cc2c(cc1N)N[C@@H](CC(C)C)C(=O)N(CCC(C)C)C2`: the IC50 on Vitamin D3 receptor is over 30 µM. The inhibition in series [1] came out at 47%.
Take `CC(C)=Cc1ccc2c(c1)CN(CCC(C)C)C(=O)[C@H](CC(C)C)N2`: in series [1], the inhibition result is “inactive”.
On to `CC(C)CCN1Cc2cc(/C=C/CO)ccc2N[C@@H](CC(C)C)C1=O`, for which the IC50 on Vitamin D3 receptor was over 30 µM. Further, in series [1], the inhibition stood at 27%.
For the molecule `CC(C)CCN1Cc2cc(I)ccc2N[C@@H](CC(C)C)C1=O`, the half-maximal inhibitory concentration (IC50) on Vitamin D3 receptor is over 30 µM. The inhibition in series [1] turned out to be 30%.
Consider `CC(C)=Cc1cc2c(cc1N)N[C@@H](CC(C)C)C(=O)N(CCC(C)C)C2`, for which the IC50 at Vitamin D3 receptor was 26 µM.
With `C=C(CC)c1ccc2c(c1)CN(CCC(C)C)C(=O)[C@H](CC(C)C)N2`, the IC50 on Vitamin D3 receptor is over 30 µM. For the same molecule, in series [1], the inhibition amounted to 32%.
